pEC50: −log10 of the molar value. Like-named read-outs stand apart in the source and are kept apart here.
Legend:
[1] = test system: NFkB pathway THP1-Dual cells; assay: Stimulation of human THP-1 monocytic cells, THP1-Dual reporter cells (SEAP, NF-kB); assay type: cell-based
Method: The compounds/conjugates of formula (II) according to the disclosure were subjected to pharmacological testing for determining their activity on human monocytic cells that express at their membrane surface Fc receptors that show binding specificity for the Fc part of the compounds/conjugates of formula (II). The below tests involving measuring the in vitro activity of some compounds/conjugates of formula (II) of the disclosure were carried out using THP1-Dual™ cells as reporter monocyte cells. […] THP1-Dual™ cells (#thpd-nfis) from InvivoGen were used according to the manufacturer's instructions. The cells were obtained by stable integration of two inducible reporter constructs in human THP-1 monocyte cells: an optimized Secreted Embryonic Alkaline Phosphatase (SEAP) reporter gene which is placed under the control of the IFN-β minimal promoter fused to five NF-κB and three c-Rel binding sites and a Secreted Lucia luciferase gene which is placed under the control of an ISG54 minimal promoter fused with five interferon (IFN)-stimulated response elements. As a result, THP1-Dual™ cells allow to study the activation of the NF-κB pathway by monitoring the activity of SEAP, and the interferon regulatory factor pathway, by assessing the activity of Lucia luciferase.

[2] = target: Fc receptors at the membrane surface of human THP-1 monocytic cells; assay: cell-based or functional assay
[3] = test system: human MKN-45 tumor cells; assay: Incucyte Immune Cell Killing Assay, co-culture of human PBMC and NucLight red-labelled MKN-45 tumor cells; assay type: cell-based; conditions: 10 nM, 120-hour incubation, PBMC + MKN-45 co-culture
Method: The conjugates according to the disclosure were subjected to pharmacological testing for determining their tumor cell killing activity via immune cell activation.
The below tests involving measuring the in vitro tumor cell killing activity of some compounds of the disclosure were carried out using Incucyte® Immune Cell Killing Assay consisting in co-culture of human peripheral blood mononuclear cells (PBMC) and NucLight red-labelled human MKN-45 tumor cells. This Immune Cell Killing Assay allows for direct, measurements of immune cell-mediated killing of MKN-45 tumor cells with the combination of real-time, automated analysis of tumor cell number.
MKN-45 (stomach tumor cell line, DSMZ Germany) were used as they present a very high expression of CEACAM5 (Antigen Binding Capacity ≈3.10E5 receptors per cell). To count living MKN-45 cells in real time without altering their function, MKN45 cells have been stained thanks to a lentiviral-based labeling reagent enabling expression of a nuclear-restricted red (Nuclight Red) fluorescent protein. […]
The plates were then placed in the Incucyte® live-cell analysis apparatus. The Incucyte® Cell-by-Cell Analysis module was used to quantify the number of NucLight red-labelled MKN-45 tumor cells over-time. […]

[4] = target: human CEACAM5 (human) (UniProt P06731); assay: cell-based or functional assay
[5] = target: T1, human TLR7 (Homo sapiens, UniProt Q9NYK1); assay: TLR7 pathway activation, parental HEK-Blue hTLR7 reporter cells (SEAP); assay type: cell-based
T1 construct: host or cells: HEK293 (HEK-Blue hTLR7); engineered variants additionally transfected with tumor antigen genes
T1 sequence (Q9NYK1 27-1049): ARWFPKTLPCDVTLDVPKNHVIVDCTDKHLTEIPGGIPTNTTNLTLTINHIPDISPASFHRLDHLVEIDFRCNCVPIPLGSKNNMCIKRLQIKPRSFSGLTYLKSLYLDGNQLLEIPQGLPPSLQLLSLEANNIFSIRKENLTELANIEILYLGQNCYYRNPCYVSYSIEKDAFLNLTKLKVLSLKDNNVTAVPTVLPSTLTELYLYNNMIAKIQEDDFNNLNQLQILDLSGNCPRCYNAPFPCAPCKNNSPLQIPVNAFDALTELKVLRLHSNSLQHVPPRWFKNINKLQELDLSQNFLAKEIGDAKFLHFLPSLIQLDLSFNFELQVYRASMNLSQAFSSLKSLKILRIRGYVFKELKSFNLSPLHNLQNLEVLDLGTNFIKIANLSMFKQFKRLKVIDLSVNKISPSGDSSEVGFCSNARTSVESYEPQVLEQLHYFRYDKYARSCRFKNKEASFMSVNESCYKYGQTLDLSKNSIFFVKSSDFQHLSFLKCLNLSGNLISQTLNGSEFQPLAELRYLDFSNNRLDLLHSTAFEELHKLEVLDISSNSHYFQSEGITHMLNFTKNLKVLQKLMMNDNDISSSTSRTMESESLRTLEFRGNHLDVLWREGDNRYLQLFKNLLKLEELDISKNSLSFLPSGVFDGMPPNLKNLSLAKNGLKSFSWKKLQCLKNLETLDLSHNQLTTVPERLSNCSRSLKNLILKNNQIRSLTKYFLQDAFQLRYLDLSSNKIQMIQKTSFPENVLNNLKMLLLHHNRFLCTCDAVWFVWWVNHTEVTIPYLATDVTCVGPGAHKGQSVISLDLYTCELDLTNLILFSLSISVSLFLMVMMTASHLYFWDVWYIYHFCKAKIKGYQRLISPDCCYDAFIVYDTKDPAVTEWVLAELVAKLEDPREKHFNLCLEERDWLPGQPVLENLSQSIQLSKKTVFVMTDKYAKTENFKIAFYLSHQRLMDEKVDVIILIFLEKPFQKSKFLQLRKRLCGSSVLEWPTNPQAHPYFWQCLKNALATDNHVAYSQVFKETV
Method: The below tests involving measuring the in vitro activity of some compounds of the disclosure on human TLR7 pathway were carried out using parental HEK-Blue™ hTLR7 cells and engineered tumor antigen-expressing HEK-Blue™ hTLR7 cells respectively as reporter cells.
(§1) HEK-Blue™ hTLR7 Cells (#hkb-htlr7) and HEK-Blue™ hTLR8 Cells (#hkb-htlr8) cells from InvivoGen and the engineered tumor antigen expressing cells were used according to the manufacturer's instructions. The HEK-Blue™ hTLR7 and HEK-Blue™ hTLR8 cells were obtained by co-transfection of the hTLR7 or hTLR8 gene in HEK293 cells and an optimized Secreted Embryonic Alkaline Phosphatase (SEAP) reporter gene which is placed under the control of the IFN-β minimal promoter fused to five NF-κB and AP-1-binding sites. The human tumor antigen expressing HEK-Blue™ hTLR7 and hTLR8 cells were obtained by transfection of the tumor antigen genes in the parental cells followed by a polyclonal selection to enrich in cells overexpressing the tumor antigen. Stimulation with a TLR7/8 ligand activates NF-kB and AP-1 which induce the production of SLAP. The cells are seeded in 96-well plate at 3.10E4 cells/well and incubated 24 hours at 37C, 5% CO2 before adding the conjugates to be evaluated. The cells are subsequently incubated with 3-fold serial dilutions of each of the compounds (0.01 nM to 1 μM) for 96 hours at 37° C., 5% CO2. Next, 20 μL of the supernatant is harvested and incubated with 200 μL of QUANTI-Blue™ Solution.

[6] = target: T2, human TLR8 (Homo sapiens, UniProt Q9NR97); assay: TLR8 pathway activation, parental HEK-Blue hTLR8 reporter cells (SEAP); assay type: cell-based; conditions: unnumbered table b703
T2 construct: host or cells: HEK293 (HEK-Blue hTLR8); engineered variant additionally transfected with the CEACAM5 tumor antigen gene
T2 sequence (Q9NR97 27-1041): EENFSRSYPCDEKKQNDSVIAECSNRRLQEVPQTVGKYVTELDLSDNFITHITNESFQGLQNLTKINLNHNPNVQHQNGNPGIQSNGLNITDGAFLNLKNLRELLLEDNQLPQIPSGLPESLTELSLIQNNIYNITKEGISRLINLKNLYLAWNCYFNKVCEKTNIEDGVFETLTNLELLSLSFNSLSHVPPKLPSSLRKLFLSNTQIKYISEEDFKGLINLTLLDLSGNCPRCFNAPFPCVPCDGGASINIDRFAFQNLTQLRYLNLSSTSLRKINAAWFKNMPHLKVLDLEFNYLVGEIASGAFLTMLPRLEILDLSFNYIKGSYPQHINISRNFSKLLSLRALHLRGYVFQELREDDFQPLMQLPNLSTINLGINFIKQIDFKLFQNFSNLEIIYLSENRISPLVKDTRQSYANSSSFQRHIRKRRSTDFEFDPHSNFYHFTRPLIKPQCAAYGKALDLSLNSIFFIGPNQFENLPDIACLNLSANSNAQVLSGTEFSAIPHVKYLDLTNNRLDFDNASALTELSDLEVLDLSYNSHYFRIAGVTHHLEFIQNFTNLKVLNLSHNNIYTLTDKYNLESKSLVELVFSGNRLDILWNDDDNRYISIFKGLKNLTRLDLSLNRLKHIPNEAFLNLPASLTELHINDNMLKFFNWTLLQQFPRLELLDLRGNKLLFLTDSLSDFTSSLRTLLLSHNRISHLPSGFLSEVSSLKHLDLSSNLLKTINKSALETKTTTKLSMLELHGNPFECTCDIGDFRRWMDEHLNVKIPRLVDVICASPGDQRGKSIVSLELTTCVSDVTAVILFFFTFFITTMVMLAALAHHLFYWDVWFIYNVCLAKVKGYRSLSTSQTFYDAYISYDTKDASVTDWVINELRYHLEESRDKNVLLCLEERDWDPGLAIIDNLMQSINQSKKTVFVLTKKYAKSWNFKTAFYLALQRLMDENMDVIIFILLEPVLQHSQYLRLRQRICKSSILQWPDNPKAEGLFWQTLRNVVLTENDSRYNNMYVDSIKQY
Description: as §1, with “evaluated.” for “evaluated. The cells are subsequently incubated with 3-fold serial dilutions of each of the compounds (0.01 nM to 1 μM) for 96 hours at 37° C., 5% CO2. Next, 20 μL of the supernatant is harvested and incubated with 200 μL of QUANTI-Blue™ Solution.”

[7] = monotherapy, intravenous; cited from earlier work
[8] = Homo sapiens, THP1-Dual, Table 6, reference ligands
[9] = Table 1a, 96 hours, read-out: EC50 HEKBlue-hTLR7

Chain of human CEACAM5 (human) (P06731 35-685 limits assumed): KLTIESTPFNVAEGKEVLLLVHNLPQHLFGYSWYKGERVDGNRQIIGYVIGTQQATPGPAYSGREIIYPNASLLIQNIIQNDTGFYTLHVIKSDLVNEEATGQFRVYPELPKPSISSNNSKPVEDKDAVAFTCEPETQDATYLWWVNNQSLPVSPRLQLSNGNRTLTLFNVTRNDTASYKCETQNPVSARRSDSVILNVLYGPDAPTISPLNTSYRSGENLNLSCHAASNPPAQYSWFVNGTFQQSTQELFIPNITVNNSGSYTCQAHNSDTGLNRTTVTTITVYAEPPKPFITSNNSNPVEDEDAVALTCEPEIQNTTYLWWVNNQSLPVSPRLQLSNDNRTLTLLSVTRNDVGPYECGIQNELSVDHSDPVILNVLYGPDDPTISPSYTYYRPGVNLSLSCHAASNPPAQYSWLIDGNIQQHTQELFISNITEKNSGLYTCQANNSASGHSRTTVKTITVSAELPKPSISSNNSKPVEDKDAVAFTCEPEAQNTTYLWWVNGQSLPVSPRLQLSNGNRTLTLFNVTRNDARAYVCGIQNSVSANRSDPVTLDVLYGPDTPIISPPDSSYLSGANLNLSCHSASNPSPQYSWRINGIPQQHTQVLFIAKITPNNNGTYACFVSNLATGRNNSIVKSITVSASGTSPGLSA

## CEACAM5_Tusamitamab-PEG24-R848 ADC [Example 20a]
[1]; Table 7a, 96 hours
  pEC50: 9.05

## CCCN(CCC)C(=O)C1=Cc2ccc(-c3ccc(C(=O)N4CCCC4)cc3)cc2N=C(N)C1 [Motolimod, reference compound]
[1]; [8]
  pEC50: 6.40

## CCNCc1nc2c(N)nc3ccccc3c2n1CC(C)(C)O [Gardiquimod, reference compound]
[1]; [8]
  pEC50: < 5.40

## CEACAM5_Tusamitamab-PEG24-R848 ADC (Example 20a) (antibody)
[2]
  EC50 NFkB pathway THP1-Dual cells: 0.9 nM

## CEACAM5_Tusamitamab-PEG8-R848 ADC [Example 8]
[1]; Table 7a, 96 hours
  pEC50: 8.72

## CEACAM5_Tusamitamab-PEG24-R848
[3]
  % of Immune cell-mediated killing activity: 57%

## CEACAM5_Tusamitamab-PEG4-R848 ADC [Example 2]
[1]; Table 7a, 96 hours
  pEC50: 9.10

## Irrelevant human IgG1 (antibody)
[4]
  Internalized fluorescent intensity (Median) on HEKBlue-hTLR7-CEACAM5, 4 hours: 144
  Internalized fluorescent intensity (Median) on HEKBlue-hTLR7-CEACAM5, 24 hours: 525
  Internalized fluorescent intensity (Median) on HEKBlue-hTLR7-CEACAM5, 48 hours: 738
  Internalized fluorescent intensity (Median) on HEKBlue-hTLR7-CEACAM5, 72 hours: 833
  Internalized fluorescent intensity (Median) on HEKBlue-hTLR8-CEACAM5, 4 hours: 68
  Internalized fluorescent intensity (Median) on HEKBlue-hTLR8-CEACAM5, 24 hours: 120
  Internalized fluorescent intensity (Median) on HEKBlue-hTLR8-CEACAM5, 48 hours: 151
  Internalized fluorescent intensity (Median) on HEKBlue-hTLR8-CEACAM5, 72 hours: 167

## CEACAM5_Tusamitamab-PEG4-R848 ADC (Example 2) (antibody)
[2]
  EC50 NFkB pathway THP1-Dual cells: 0.8 nM

## CEACAM5_Tusamitamab-PEG8-R848 ADC (Example 8) (antibody)
[2]
  EC50 NFkB pathway THP1-Dual cells: 1.9 nM

## CCOCc1nc2c(N)nc3ccccc3c2n1CC(C)(C)O [Example R848, 4-amino-2-(ethoxymethyl)-alpha, alpha-dimethyl-1H-imidazo(4,5-c)quinoline-1-ethanol, reference compound]
[1]; [8]
  pEC50: 6.67
[1]; Homo sapiens, THP1-Dual, Table 7b, 96 hours
  pEC50: 6.62

## CEACAM5_Tusamitamab_E152C_S375C-PEG24-R848 ADC [Example 43]
[5]; Table 1c, 96 hours, read-out: EC50 HEKBlue-hTLR7
  pEC50: < 6.00
[1]; Table 7b, 96 hours
  pEC50: 8.70

## CEACAM5_Tusamitamab-PEG12-R848 ADC (Example 14) (antibody)
[2]
  EC50 NFkB pathway THP1-Dual cells: 2.8 nM

## CCOCc1nc2c(N)nc3ccccc3c2n1CC(C)(C)N [Example 3M012, 1-(2-amino-2-methylpropyl)-2-(ethoxymethyl)-1H-imidazo[4,5-c]quinolin-4-amine, reference compound]
[5]; [9]
  pEC50: 6.29
[5]; unnumbered table b703, read-out: EC50 on HEK-Blue ™ hTLR7 cells
  pEC50: 6.29
[6]
  pEC50: 5.60

## CCOCc1nc2c(N)nc3ccccc3c2n1CC(C)(C)O.O=S(=O)(O)O [BDB-001]
[7]
  treatment-related adverse events, share of the enrolled patients: around 78%

## CEACAM5_Tusamitamab-PEG12-R848 ADC [Example 14]
[1]; Table 7a, 96 hours
  pEC50: 8.55

## EGFR_cetuximab-PEG24-R848 ADC [Example 23]
[5]; [9]
  pEC50: < 6.00

Reference: patent US20260152497A1, “MIDAZO[4,5-c]QUINOLINE-4-AMINE COMPOUNDS AND CONJUGATES THEREOF, THEIR PREPARATION, AND THEIR [sequence] APPLICATIONS” (SANOFI, priority 2021, published 2026)
